Measurements from patent publication US9937227B2, “Humanin, analogs and cancer treatment methods and uses thereof” (LOS ANGELES BIOMEDICAL RESEARCH INSTITUTE AT HARBOR-UCLA …, priority 2014, dated 2018).
Where two headings read alike, the source gives them in different places.

How the values were obtained:
male germ cells [1] = format: in vivo, mouse; conditions: B16 tumor-bearing mice; CP 200 mg/Kg single IP, 2 weeks
Protocol: (§1) A total of 25 young adult mice (10-12 weeks) were randomly divided into 5 groups (n=5 per group). Five mice were used as control. Twenty mice were inoculated intravenously with B16 murine melanoma cells (2×10^5 cells/mouse). Among these 20 tumor-inoculated mice, 5 mice received no further treatment. After one week, the remaining 15 mice were divided into 3 groups and injected with: 1) HNG daily IP (5 mg/Kg body weight) for 2 weeks; 2) CP (200 mg/Kg body weight IP single injection); 3) combined CP with HNG treatment (same doses as above). All mice were sacrificed 3 weeks after tumor inoculation, and 2 weeks after HNG and/or CP treatment. The animals were sacrificed with 5% pentobarbital (200 mg/kg body weight) IP injection after which blood was collected from the right atrium of the heart. One of the testes from each mouse was immersed fixed in Bouin's solution, and the mice were perfused with saline and subsequently perfuse-fixed with 5% glutaraldehyde in 0.05 M cacodylate buffer (pH 7.4). The lungs were dissected out and post fixed in 5% glutaraldehyde solution for 24 hours and stored in cacodylate buffer at 4° C. for the subsequent tumor count (Lue, et al., 2010; Lue, et al., 2009).

[2] = tested on: B16 murine melanoma cells; assay: Metastatic lung tumors in mouse B16 melanoma model (Experiments 3 and 4); format: in vivo
Protocol: as §1
Experiment 3 was repeated after inoculation of B16 melanoma tumor at week 1 and then treated with the following treatment starting at week 2 (n=5 mice per group): 1). No treatment; 2). HNG IP injections 5 mg/Kg daily; 3) CP 200 mg/Kg single IP injection; 4) HNG 5 mg/Kg/day+CP; 5). HNG IP injections 15 mg/Kg daily; and 6). HNG 15 mg/Kg/day+CP. All animals were euthanized and perfused with 4% paraformaldehyde at the end of week 3. Lungs and testes were collected and processed as in experiment 3. Methods
B16 melanoma tumors in the lung were quantified by counting the number of tumors on the surface of the lungs under stereomicroscopy (Collisson, et al., 2003; Craft, et al., 2005). The size of the tumor was measured using histomorphometry and expressed as average size of tumor. The appearance of the melanoma cells were reviewed and characterized by an expert pathologist.

[3] = tested on: Ser727-phosphorylated STAT3; assay: STAT3 phosphorylation in testis by western blot; format: in vivo, mouse; conditions: testis homogenates; single agent
Protocol: For the HN analog experiments, male mice were divided into seven groups (n=4-5 per group) and received one of the following treatments and sacrificed after 24 hours: 1) vehicle (control); 2) a single intra-peritoneal (IP) injection of HN peptide [HN, 40 mg/Kg body weight (BW)]; 3) a single IP injection of CP (CP, 200 mg/Kg BW); 4) IP injection of CP and HN (CP+HN); 5) a single IP injection of each HN analog (HNG 5 mg/Kg BW, HNG-F6A 5 mg/Kg BW, HN-S7A 40 mg/Kg BW, HN-C8P 40 mg/Kg BW, or HN-L12A 40 mg/Kg BW); 6) IP injection of CP and each HN analog (CP+HNG, HNG-F6A, HN-S7A, HN-C8P, or HN-L12A); and 7) IP injection of CP+HN+HN analog (HN-S7A, HN-C8P, or HN-L12A; to assess whether the analogs has enhancing or inhibitory effect on HN).
To facilitate testicular fixation by using a whole-body perfusion technique, all animals were injected with heparin (130 IU/100 g BW, IP) 15 min before a lethal injection of sodium pentobarbital (200 mg/kg BW, IP) (Lue Y H, et al., 1999). One testis was removed and weighed after perfusion with saline. Portions of testicular parenchyma were snap frozen in liquid nitrogen, and stored at −80 C for Western blotting. The other testis was fixed by vascular perfusion with Bouin's solution, and processed with routine paraffin embedding for in situ detection of apoptosis.
Western blotting was performed as described previously (Jia Y, et al., 2009). […]

ovaries = format: in vivo; conditions: HNG 5 mg/kg/day IP or CP 100 mg/Kg single IP, day 14
Protocol: A mouse mammary cancer model was used which utilizes 4T1 cells transfected with the luciferase gene. Growth and size of 4T1 mammary tumors were detected by bioluminescence imaging (IVIS Luminia II, Perkin Elmer, Waltham, Mass.). Mice (n=5 to 7 per group) were inoculated with 1×10^6 4T1 cells into the right third mammary gland, and 7 days later they were left untreated or treated with HNG (5 mg/kg/day IP), CP (100 mg/Kg single IP) or HNG+CP for 14 days. Animals were sacrificed and both ovaries were removed from each mouse on day 14 after the start of treatment. Serial 5-micrometer sections were made. Every 5th section was examined and the number of primordial, primary, and secondary follicles counted (Kim S Y, et al., 2013; Bristol-Gould S K, et al., 2006; Roti Roti E C, et al., 2012). In addition, TUNEL staining for apoptotic cells and oocytes was quantified (Perez G I, et al., 1997; Ben-Aharon I, et al., 2010).

IGF-1 = assay: Plasma IGF-1 in mice bearing metastatic lung melanomas; format: in vivo, mouse; conditions: 14 days; HNG 5 mg/kg/day IP, CP 200 mg/kg IP single injection
Description: These preliminary data support a concept that HN is a caloric restriction mimetic, and its cytotoxic effects in cancer may be mediated by lowering IGF-1 without increasing GH and insulin.

male germ cells [4] = tested on: male germ cells

## O=P1(N(CCCl)CCCl)NCCCO1 (centres unmarked) [CP, cyclophosphamide monohydrate]
Male germ cells [1]
  germ cell apoptosis compared to control and HNG treated mice: further significantly increased
  testis weight in comparison with control, non-treated tumor bearing and HNG treated mice: significantly decreased
[2]; Experiment 3, HNG 5 mg/Kg daily IP 2 weeks or CP 200 mg/Kg single IP
  number of metastatic tumors on the surface of the lungs vs non-treated tumor-bearing mice: decreased number of tumors
[2]; Experiment 3, HNG 5 mg/Kg daily or CP 200 mg/Kg single IP
  size of the melanoma metastasis on the surface of the lungs: decreased number of tumors but also tumor size
[2]; Experiment 4, HNG 5 mg/kg BW daily or CP 200 mg/Kg single IP
  number of lung tumors vs non-treated tumor-bearing mice: significantly decreased both the number and size of the tumors
[2]; Experiment 4, HNG 5 and 15 mg/kg BW, CP 200 mg/Kg
  size of the lung tumors vs non-treated: significantly decreased both the number and size of the tumors
[2]; HNG 5 mg/kg BW, CP, or combination
  lung metastatic melanoma histology (differentiation of melanoma cells): minor differentiation
[3]
  STAT3 phosphorylation compared with control: suppressed
ovaries
  ovarian follicles in representative sections: less secondary, but more atretic follicles
IGF-1
  plasma IGF-1 levels: modestly suppressed
Male germ cells [4]; early (I-VI) and late (IX-XIV) stages, EDS pre-treated
  germ cell apoptosis compared to control: did not significantly increased
Male germ cells [4]; early (I-VI) and late (IX-XIV) stages, no EDS, CP 70 mg/kg BW IP, 12 hours
  germ cell apoptosis compared to control: significantly increased
Male germ cells [4]; early and late stages
  CP induced germ cell apoptosis in EDS pre-treated rats vs without EDS: significantly lower
Male germ cells [4]; middle (VII-VIII) stages, no EDS, CP 70 mg/kg BW
  germ cell apoptosis compared to control: did not increase
